Active and inactive are the calls of the source. No cut-off for these calls is given here.
Columns and labels:
Catenin beta-1 [1] = target: T1, Catenin beta-1 (Homo sapiens, UniProt P35222); experiment: Inhibition of human wild-type beta-catenin (residues 138-686)/C-terminally fluorescein labeled human wild-type Tcf4 (residues 7-51) interaction after […] by FP competitive inhibition assay
T1 sequence (P35222 whole entry): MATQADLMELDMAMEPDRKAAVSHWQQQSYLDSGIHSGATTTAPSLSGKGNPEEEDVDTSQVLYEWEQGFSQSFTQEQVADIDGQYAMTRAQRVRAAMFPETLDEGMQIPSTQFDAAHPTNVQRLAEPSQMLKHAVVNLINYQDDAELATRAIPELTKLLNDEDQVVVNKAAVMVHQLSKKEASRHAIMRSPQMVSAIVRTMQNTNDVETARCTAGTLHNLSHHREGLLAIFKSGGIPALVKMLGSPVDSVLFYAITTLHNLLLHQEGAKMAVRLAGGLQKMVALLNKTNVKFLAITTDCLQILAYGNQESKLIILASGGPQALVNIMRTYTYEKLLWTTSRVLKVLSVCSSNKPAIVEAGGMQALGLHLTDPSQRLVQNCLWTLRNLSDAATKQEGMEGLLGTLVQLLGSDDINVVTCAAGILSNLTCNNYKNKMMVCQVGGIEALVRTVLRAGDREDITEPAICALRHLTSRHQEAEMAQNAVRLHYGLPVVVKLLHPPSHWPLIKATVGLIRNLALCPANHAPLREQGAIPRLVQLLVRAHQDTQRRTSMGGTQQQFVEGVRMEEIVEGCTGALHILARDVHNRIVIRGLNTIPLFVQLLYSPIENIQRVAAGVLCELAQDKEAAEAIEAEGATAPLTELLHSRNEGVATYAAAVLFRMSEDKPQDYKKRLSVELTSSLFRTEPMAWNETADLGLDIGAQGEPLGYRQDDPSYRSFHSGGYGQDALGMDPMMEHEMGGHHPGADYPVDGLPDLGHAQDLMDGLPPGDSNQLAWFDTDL

Catenin beta-1 [2] = target: T1, Catenin beta-1; experiment: Inhibition of human wild-type beta-catenin (residues 138-686)/C-terminally fluorescein-labeled human E-cadherin (residues 819-873) interaction by FP competitive inhibition assay
Catenin beta-1 [3] = target: T1, Catenin beta-1; experiment: Inhibition of human wild-type beta-catenin (residues 138-686)/C-terminally fluorescein-labeled human APC-R3 (residues 1477-1519) interaction by FP competitive inhibition assay
SW480 [4] = experiment: Cytotoxicity against human SW480 cells assessed as inhibition of cell growth after 72 hrs by MTS assay
HCT-116 [5] = experiment: Cytotoxicity against human HCT116 cells assessed as inhibition of cell growth after 72 hrs by MTS assay
HEK293 = experiment: Inhibition of interaction of beta-catenin (unknown origin) transfected in Wnt-activated HEK293 cells/Tcf4 assessed as decrease in transactivation of canonical Wnt signaling by TOPflash luciferase reporter assay; settings: Homo sapiens
SW480 [6] = experiment: cells; settings: Homo sapiens, SW480, 72 h
HCT-116 [7] = experiment: cells; settings: Homo sapiens, HCT-116, 72 h
HT-29 = experiment: cells; settings: Homo sapiens, HT-29, 72 h
SW480 [8] = experiment: Decrease in AXIN2 mRNA expression in human SW480 cells at 2 uM after 24 hrs by quantitative real-time PCR analysis; type: functional; settings: SW480, 24 h
SW480 [9] = experiment: Decrease in cyclin D1 mRNA expression in human SW480 cells at 2 uM after 24 hrs by quantitative real-time PCR analysis; type: functional; settings: SW480, 24 h
SW480 [10] = experiment: Decrease in c-myc mRNA expression in human SW480 cells at 2 uM after 24 hrs by quantitative real-time PCR analysis; type: functional; settings: SW480, 24 h
SW480 [11] = experiment: Effect on HPRT mRNA expression in human SW480 cells after 24 hrs by quantitative real-time PCR analysis; type: functional, cell-based
SW480 [12] = experiment: Effect on beta-catenin degradation in human SW480 cells assessed as beta-catenin protein expression after 24 hrs by western blot analysis; type: functional, cell-based
[13] = Inhibition of interaction of beta-catenin (unknown origin) transfected in Wnt-activated HEK293 cells/Tcf4 assessed as decrease in transactivation of canonical Wnt signaling by TOPflash luciferase reporter assay; settings: Homo sapiens
[14] = tested on: beta-catenin R469A mutant/Tcf4 (human); experiment: Inhibition of human beta-catenin R469A mutant interaction with Tcf4 by fluorescence polarization competitive inhibition assay
[15] = Inhibition of beta-catenin/Tcf4 interaction in human SW480 cells assessed as decrease in transactivation of canonical Wnt signaling by TOPflash luciferase reporter assay

| Structure (SMILES) | inhibition (SW480 [4]) | inhibition (HCT-116 [5]) | inhibition (HEK293) | IC50 (SW480 [6]) | IC50 (HCT-116 [7]) | IC50 [13] | also measured |
| --- | --- | --- | --- | --- | --- | --- | --- |
| COc1c(C[C@@H](C)OC(=O)Oc2ccc(O)cc2)c2c3c(C[C@@H](C)OC(=O)c4ccccc4)c(OC)c(=O)c4c(O)cc(OC)c(c5c(OC)cc(O)c(c1=O)c52)c43 [CALPHOSTIN C] |  |  |  |  |  |  | IC50 (Catenin beta-1 [1]): 77 µM; IC50 (Catenin beta-1 [2]): 38 µM; IC50 (Catenin beta-1 [3]): 110 µM |
| O=C(O)CCCn1c2ccccc2c2nc3nonc3nc21 | inactive | inactive | inactive |  |  |  |  |
| COc1c(C[C@H](C)O)c2c3c(C[C@H](C)O)c(OC)c(=O)c4c(O)cc5c(c6c(cc(O)c(c1=O)c62)OCO5)c43 |  |  |  | 5.5 µM | 1.2 µM |  | IC50 (HT-29): 1.8 µM |
| Nc1nonc1C(=O)N/N=C1/c2ccccc2-c2nc3nonc3nc21 |  |  |  |  |  |  | inhibition at 2 µM (SW480 [8]): > 50%; inhibition at 2 µM (SW480 [9]): > 50%; inhibition at 2 µM (SW480 [10]): > 50%; Activity (SW480 [11]): inactive; Activity (SW480 [12]): inactive |
| c1ccc2c(c1)c1nc3nonc3nc1n2CCc1nn[nH]n1 |  |  |  | > 200 µM | 31 µM | 26 µM | Activity (SW480 [11]): inactive |
| O=C(O)c1cc2nc(-c3ccc4c(c3)OCO4)c(-c3ccc4c(c3)OCO4)nc2cc1O |  |  |  |  |  | > 100 µM |  |
| Nc1nonc1NC(=O)Cn1c2ccccc2c2nc3nonc3nc21 | inactive | inactive | inactive |  |  |  | Ki [14]: 42 µM |
| O=C(O)c1ccc2nc(-c3ccc(Cl)cc3)c(-c3ccc(Cl)cc3)nc2c1 |  |  |  | 38 µM | 22 µM | > 100 µM | IC50 (HT-29): 41 µM |
| COc1ccc(/C=C2/SC(=S)N(CCCC(=O)O)C2=O)cc1OC |  |  |  | 240 µM | 180 µM |  | IC50 [15]: 4 µM; IC50 (HT-29): 290 µM |
| COC(=O)CCn1c2ccccc2c2nc3nonc3nc21 | inactive | inactive | inactive |  |  |  |  |
| N#CCCn1c2ccccc2c2nc3nonc3nc21 |  |  |  | 52 µM | 0.02 µM |  |  |
| CCOC(=O)CCCn1c2ccccc2c2nc3nonc3nc21 | inactive | inactive | inactive |  |  |  |  |
| O=C(O)c1cc(-c2ccc(Oc3ccc(Cl)cc3)cc2)on1 |  |  |  |  |  | 39 µM |  |

Source: ChEMBL document CHEMBL3588842, “Discovery of Selective Small-Molecule Inhibitors for the β-Catenin/T-Cell Factor Protein-Protein Interaction through the Optimization of the Acyl Hydrazone Moiety” (J Med Chem, 2015)
